pIC50: −log10 of the molar value. Entries after “also recorded” stand apart in the source; their conditions may differ. In the oligonucleotide strings, read from the 5' end, every base follows the letter of its sugar. An asterisk marks phosphorothioate; unmarked linkages are phosphodiester. Other units and linkages are bracketed, terminal groups are in braces. A string of capitals states the bases alone. d = 2'-deoxy (DNA)
What was measured:
[1] = test system: cellular phosphotyrosine content of K562 cells; test: Western analysis of total cellular phosphotyrosine content after electroporation of K562 cells; format: cell-based, human; settings: K562 cells electroporated with 100 μM ODN, one hour later
Protocol: One hundred micrograms of protein from cell lysates were separated on a 7% SDS polyacrylamide gel. Transfer was performed overnight at 50 volts, 4° C., in a 0.2 M glycine, 25 mM Tris, pH 8.3, 0.15% SDS, 20% methanol buffer, onto […] nitrocellulose (Schleicher and Schuell Inc.). For cellular phosphotyrosine blots, Western probing was performed as described previously, with modifications (SARTOR, et al, 1991). Briefly, membranes were blocked for 2 hours with 5% albumin in TTBS (20 mM Tris HCL, pH 7.6; 0.05% Tween 20; 0.9% sodium chloride), probed for 1 hour with antiphosphotyrosine antibody (Upstate Biotechnology Inc., Lake Placid, N.Y.) diluted 1:500 in TTBS, followed by rabbit anti-mouse antibody (Cappel Research Products) and then [^125 I] protein A Sepharose (Amersham Corp., Arlington Heights, Ill.). Membranes were exposed to Kodak X-OMAT AR film overnight at -70° C. with intensifying screens.
Electroporation was performed as described (40). Briefly, 1-5×10^6 cells in 1 ml of RPMI 1640 with 10% fetal calf serum were placed into 0.4 cm gap electroporation chambers and electroporated with a Cell-Porator Electroporation System 1 (all from GIBCO BRL, Grand Island, N.Y.) at 800 microfarrads, 300 volts, at room temperature. Cells were then incubated at 37° C. for 1 hour before manipulation.
In K562 cells p210^bcr-abl is a major kinase responsible for protein tyrosine phosphorylation (38, 39). Changes in enzyme activity are therefore reflected by changes in cellular phosphotyrosine content.

p210^bcr-abl kinase = test: Immunoprecipitation kinase assay of p210bcr-abl (autophosphorylation), ODN added to kinase reaction; format: biochemical, human; settings: for Percent Remaining Activity of p210^bcr-abl kinase relative to control: ODN 1 μM, phosphorothioate capped, mean ± SE of three experiments; for inhibition of p210^bcr-abl kinase activity in vitro (in words): ODN at 1 μM added to the immunoprecipitated enzyme
Protocol: The p210^bcr-abl kinase, src kinase and cdc-2 kinase were immunoprecipitated from K562 cells. The p145^abl kinase was immunoprecipitated from PC3M cells, PDGF receptor kinase from 3T3 cells, and EGF receptor kinase from A431 cells. MAP kinase was utilized as a pure protein and lck kinase was immunoprecipitated from peripheral blood lymphocytes of a normal volunteer.
Cells were washed in phosphate buffered saline (PBS) and 0.5-5×10^6 cells were solubilized in 1 ml of the specified cell lysis buffers. Unless otherwise stated, all cell lysis buffers contained the following protease inhibitors: 20 μg/ml leupeptin, 1 μg/ml aprotinin, and 1 mM phenylmethylsulfonylfluroide. For p210^bcr-abl and […] immunoprecipitation, cells were lysed with ABL lysis buffer (25 mM imidazole, pH 7.2, 0.5% NP40, 50 mM NaCl, 1 mM Na3 VO4) and lysates were clarified at 14,000 g. 4° C. for 30 minutes. Cell lysis for all other proteins was performed according to the references describing the various immunoprecipitation kinase assays.
(§1) Immunoprecipitation kinase assays of p210^bcr-abl p145^abl were performed as described, with modifications (15). Briefly, for p210^bcr-abl, 1 μg of anti-bcr antibody (clone 7C6, Oncogene Science, Uniondale, N.Y.) was added to lysates prepared from 0.5-1×10^6 K562 cells. For p145^abl, 1 μg of anti-c-abl antibody (clone 24-21), which binds to the C-terminal domain of p145^abl, was added to lysates prepared from 5×10^6 PC3M cells. After incubating 1 hour at 4° C., complexes were precipitated by incubating with protein A-Sepharose coated with rabbit anti-mouse immunoglobulin (Cappel Research Products, Durham, N.C.) for 30 minutes. The complexes were then washed as follows: ABL lysis buffer×2, PBS×1, and ABL assay buffer×1 (24 mM imidazole, pH 7.2, 1 mg/ml bovine serum albumin, and 10 mM MnCl). For p145^abl assays ABL assay buffer contained 20 mM MnCl. To access the activity of p210^bcr-abl on substrate phosphorylation, acid inactivated enolase (Sigma Chemical Co., St. Louis, Mo.) was added as described (15).
(§2) ODNs were added to kinase reaction buffers not more than 5 minutes prior to the addition of ATP. Reactions were initiated by the addition of [γ^-32 P] ATP (3000 Ci/mmole; Amersham Corp., Arlington Heights, Ill.) and quenched by the addition of 5× gel loading buffer and heating to 95° C. Kinase reactions were run for 1-10 minutes at room temperature, except for EGFR, p145^abl, and MAP kinase, which were run at 30° C. The products were then electrophoresed on SDS-polyacrylamide gels: 7% for p210^bcr-abl, EGFR, and PDGFR, 8% for p145^abl, 10% for src, lck, and cdc-2 kinase, and 12% for MAP kinase. Gels were dried and reaction products were visualized by direct autoradiography at -70° C. with Kodak X-OMAT AR film. To determine the inhibitory concentration 50, i.e., the concentration required to inhibit enzyme activity by 50% (IC50) and Ki values, gel slices containing the band of interest were excised and analyzed by Cerenkov counting.

[2] = test system: p210^bcr-abl kinase in K562 cells; test: Immunoprecipitation kinase assay of p210bcr-abl from ODN treated K562 cells; format: cell-based, human; settings: K562 cells incubated 3 days with 50 μM ODN, washed
Protocol: as §1, §2
The effects of ODN1 on a cellular system were assessed. […] After 3 days, cells were washed and p210^bcr-abl kinase activity was measured. […] Neither cellular p210^bcr-abl protein content nor cell growth was affected by ODN treatment (data not shown).

K562 cells = test: K562 colony formation in soft agar; format: cell-based, human; settings: 50 μM ODN, two weeks, not electroporated
Protocol: K562, NIH 3T3, and A431 cells were purchased from the American Type Culture Collection (Rockville, Md.). PC3M prostate cancer cells were a generous gift from J. Trepel (National Institutes of Health, Bethesda, Md.). K562 and PC3M cells were cultured in RPMI 1640 with 10% heat-inactivated fetal bovine serum (FBS; GIBCO BRL, Grand Island, N.Y.) while NIH 3T3 and A431 cells were cultured in Dulbecco's modified Eagle's medium (Biofluids, Rockville, Md.) with 10% heat inactivated FBS. Cells were maintained at 37° C., 6% carbon dioxide with biweekly media changes. For soft agar cloning, cells were suspended in 0.3% low melting temperature agarose (SeaPlaque FMC BioProducts, Rockland, Me.) in RPMI 1640 with 10% total calf serum and maintained as above.
To evaluate the effects of these various ODNs of K562 cell growth, both growth in liquid culture and growth in soft agar were examined. […] Cells were electroporated in the presence of 50 μM ODN and kept in liquid culture. For soft agar cloning experiments, cells were not electroporated, but were grown in the presence of 50 μM ODN for two weeks. Liquid cultures were replenished with fresh medium containing 50 μM ODN. Two weeks following incubation in liquid culture, the number of trypan blue-excluding cells was determined. No effect on cell growth in liquid culture could be observed with any ODN tested (data not shown).

PDGF receptor (PDGFR) = test: inhibition; settings: PS, two linkages at each of 5' and 3' ends, rest phosphodiester; autophosphorylation
MAP kinase = test: inhibition; settings: PS, two linkages at each of 5' and 3' ends, rest phosphodiester; 30 C
[3] = listed as BCR-AS all-phosphorothioate

5' CCGACCACTTCCGAGTACTAG-3' (chemistry not given here) [ABL-1bSCR, the scrambled version of ABL-1bAS]
total cellular protein phosphotyrosine content [1]: less marked effects

5' GGCCGTGCAGCTCGCACCGGC 3' (chemistry not given here) [ODN1C, scrambled version of ODN1]
Percent Remaining Activity of p210^bcr-abl kinase relative to control (p210^bcr-abl kinase): 74 ± 15%

5' GGCGGCCGCGCTGCAACCCGT 3' (chemistry not given here) [ODN1A, scrambled version of ODN1]
Percent Remaining Activity of p210^bcr-abl kinase relative to control (p210^bcr-abl kinase): 42 ± 6.9%

5' GGCGGCGGCGGCGGCGGCGGC 3' (chemistry not given here) [SEQ ID NO.: 11, 21mer consisting of seven tandem GGC repeats]
inhibition of p210^bcr-abl kinase activity in vitro (in words) (p210^bcr-abl kinase): inhibitory activity equivalent to ODN1

5' TCCGCGAACCCGGTGCGCCGG 3' (chemistry not given here) [ODN1D, scrambled version of ODN1 / BCR-AS]
p210^bcr-abl kinase activity of ODN treated K562 cells [2]: did not inhibit kinase activity | ability to form colonies in soft agar (K562 cells): inhibited the ability of these cells to form colonies in soft agar | Percent Remaining Activity of p210^bcr-abl kinase relative to control (p210^bcr-abl kinase): 79 ± 79% | inhibition of p210^bcr-abl kinase activity in vitro (in words) (p210^bcr-abl kinase): does not inhibit kinase activity | total cellular protein phosphotyrosine content ([1]; listed as BCR-SCR): effectively lowered protein phosphotyrosine content; also recorded: reduced protein phosphotyrosine content

5' TGCCCAACGTCGCGCCGGCGG 3' (chemistry not given here) [ODN1B, scrambled version of ODN1]
Percent Remaining Activity of p210^bcr-abl kinase relative to control (p210^bcr-abl kinase): 59 ± 6.4%

5'-CGCTGAAGTTTTGAACTCTGC-3' (chemistry not given here) [B/A-AS, spans the bcr-abl fusion region, complementary to 11 bcr and 10 abl nucleotides of the mature fusion transcript]
p210^bcr-abl kinase activity of ODN treated K562 cells [2]: inhibited kinase activity | ability to form colonies in soft agar (K562 cells): failed to effect the cloning ability of the cells | total cellular protein phosphotyrosine content [1]: less marked effects; also recorded: no effect

5'-GTCCACCATGGCGCGGCCGGC-3' [ODN1 2'-methoxy modified sugars] (2'-O-methyl modified sugars, pattern not given here)
inhibition of p210^bcr-abl kinase activity in vitro (in words) (p210^bcr-abl kinase): least effective

5'-GTCCACCATGGCGCGGCCGGC-3' [ODN1 all phosphodiester] (unmodified DNA)
inhibition of p210^bcr-abl kinase activity in vitro (in words) (p210^bcr-abl kinase): intermediate potencies | total cellular protein phosphotyrosine content ([1]; listed as BCR-AS phosphodiester): equally effective

5'-GTCCACCATGGCGCGGCCGGC-3' [ODN1 all phosphorothioate] (DNA dG*dT*dC*dC*dA*dC*dC*dA*dT*dG*dG*dC*dG*dC*dG*dG*dC*dC*dG*dG*dC)
inhibition of p210^bcr-abl kinase activity in vitro (in words) (p210^bcr-abl kinase): most potent inhibitor | inhibition of p210^bcr-abl kinase activity in vitro (in words) (p210^bcr-abl kinase; [3]): most effective inhibitor | total cellular protein phosphotyrosine content [1, 3]: no effect

5'-TCCAGGCTGCTGCCCCATAAA-3' (chemistry not given here) [ABL-1bAS, complementary to nucleotides -3 to +18 of the abl lb mRNA]
total cellular protein phosphotyrosine content [1]: less marked effects

5'-TGTACGTCCGGCTTACTAGTA-3' (chemistry not given here) [B/A-SCR, scrambled version of the B/A ODN]
p210^bcr-abl kinase activity of ODN treated K562 cells [2]: did | ability to form colonies in soft agar (K562 cells): inhibited the ability of these cells to form colonies in soft agar | total cellular protein phosphotyrosine content [1]: effectively lowered protein phosphotyrosine content; also recorded: reduced protein phosphotyrosine content

GGCG
inhibition of p210^bcr-abl kinase activity in vitro (in words) (p210^bcr-abl kinase): no inhibitory activity

GTCCACCATGGCGCGGCCGGC [ODN1 (BCR-AS), phosphorothioate capped]
pIC50 (PDGF receptor (PDGFR)): 5.36 | pIC50 (MAP kinase): < 4.00

From patent US5998596A, “Inhibition of protein kinase activity by aptameric action of oligonucleotides” (The United States of America as represented by the …)
